Data on nine compounds can be found in patent US12582645B2, “Chemokine CXCR4 receptor modulators and uses related thereto” (Emory University, priority 2017, dated 2026).

As a reminder, the IC50 is the concentration that inhibits the measured activity by half.

Each structure is given as a SMILES string.

T1 sequence (P61073 whole entry): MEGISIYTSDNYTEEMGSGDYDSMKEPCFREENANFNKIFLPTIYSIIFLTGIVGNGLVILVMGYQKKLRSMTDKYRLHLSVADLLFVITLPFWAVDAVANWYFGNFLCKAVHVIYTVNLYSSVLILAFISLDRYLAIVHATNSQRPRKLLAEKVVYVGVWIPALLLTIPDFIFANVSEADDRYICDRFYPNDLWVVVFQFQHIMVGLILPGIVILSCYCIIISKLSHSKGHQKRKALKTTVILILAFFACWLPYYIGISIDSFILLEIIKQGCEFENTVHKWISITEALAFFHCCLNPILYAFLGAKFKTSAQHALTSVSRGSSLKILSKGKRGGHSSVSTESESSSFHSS

The assay has as its target T1, CXCR4 (Homo sapiens, UniProt P61073).
T1 construct: Human T lymphoblast cells (CCRF-CEM) expressing endogenous CXCR4 receptors; endogenous in cells; host or cells: CCRF-CEM (human T lymphoblast cells)
The assay is described as follows: CXCR4-CEM calcium flux assay, antagonist mode (inhibition of SDF-1α-induced calcium flux). It counts as cell-based. The conditions noted are these: CCRF-CEM cells expressing endogenous CXCR4, stimulated with 4 nM SDF-1α, read-out: CXCR4 Ca^2+ Flux IC50. Here is the method:
CXCR4-CEM Calcium Flux Assays
Exemplary compounds of the invention were tested for their ability to induce or inhibit calcium flux in CCRF-CEM cells, a human cell line that endogenously expresses CXCR4. Activation of CXCR4 stimulates G protein signaling which, in CCRF-CEM cells, causes a series of downstream events that leads to the release of intracellular calcium stores, or calcium flux. Calcium ion concentrations can be easily measured using a wide variety of […] calcium indicators and, as a result, calcium flux assays are commonly employed methods for measuring G protein-coupled receptor (GPCR) activity. Because the therapeutic potential of CXCR4 antagonists as anti-cancer agents likely relies on their ability to inhibit CXCR4-mediated G protein signaling, this assay was utilized as a first-pass measure of inhibitor potency.
The cells were then equilibrated to room temperature for 30 minutes before assay. […] For “antagonist mode” assessment, the cells are subsequently incubated for 25 minutes at room temperature. SDF-1α (R&D System Cat #350-NS/CF) was then added at a final concentration of 4 nM to stimulate the cells. Inhibition of SDF-1α-induced calcium flux was monitored by FDSS6000 for 90 seconds.
After correcting for background, EC50 values were determined. […] Inhibition data for the test compound over a range of concentrations was plotted as percentage inhibition of the test compound as compared to an internal control compound.
As to `Cc1cnc2c(c1)CCC[C@@H]2N(C)C[C@H]1Cc2c(cccc2N2CCNCC2)CN1` [EMU230, (S)—N,3-dimethyl-N—(((R)-5-(piperazin-1-yl)-1,2,3,4-tetrahydroisoquinolin-3-yl)methyl)-5,6,7,8-tetrahydroquinolin-8-amine], the IC50 came to 16.1 nM. The same measure for `CN1CCN(c2cccc3c2C[C@H](CN2CCC[C@H]4CCc5cccnc5[C@H]42)NC3)CC1` [EMU232, (4aR,10bS)-1-(((R)-5-(4-methylpiperazin-1-yl)-1,2,3,4-tetrahydroisoquinolin-3-yl)methyl)-1,2,3,4,4a,5,6,10b-octahydro-1,10-phenanthroline]: 25.2 nM; for `CN1Cc2cccc(N3CCNCC3)c2C[C@@H]1CN(C)[C@H]1CCCc2cccnc21` [EMU234]: 32 nM. The same measure for `CN(C[C@H]1Cc2c(cccc2N2C[C@H]3CCN(C)[C@H]3C2)CN1)C1CCCc2cccnc21` (stereo partly drawn) [EMU235]: 18.7 nM; for `CN(C[C@H]1Cc2c(cccc2N2C[C@@H]3CCN(C)[C@@H]3C2)CN1)C1CCCc2cccnc21` (stereo partly drawn) [EMU236]: 11.4 nM; for `CN(C)[C@@H]1CCN(c2cccc3c2C[C@H](CN(C)[C@H]2CCCc4cccnc42)NC3)C1` [EMU237]: 10.4 nM. The same measure for `CN1Cc2cccc(N3CCN4CCC[C@@H]4C3)c2C[C@@H]1CN(C)[C@H]1CCCc2cccnc21` [EMU239]: 44.6 nM; for `CN1CCC(N(C)c2cccc3c2C[C@H](CN(C)[C@H]2CCCc4cccnc42)NC3)CC1` [EMU240]: 13.4 nM; for `CN1Cc2cccc(N3CCN4CCC[C@H]4C3)c2C[C@@H]1CN(C)[C@H]1CCCc2cccnc21` [EMU241]: 58.1 nM.
